Measurements reported in patent publication US20090181972A1, “Novel Inhibitors of Cysteine Proteases, the Pharmaceutical Compositions Thereof and their Therapeutic Applications” (priority 2005, published 2009).

Assays:
[1] = target: T1, SENP1 (Homo sapiens, UniProt Q9P0U3); assay: SENP1 activity assay; type: biochemical; details: MBP-SENP1 1.8 nM, 200 nM SUMO-AMC; pre-incubated 30 minutes at 25° C., 60 minutes at 37° C.; sigmoidal fit
T1 construct: made in house; host or cells: E. coli BL21
T1 sequence (Q9P0U3 1-644): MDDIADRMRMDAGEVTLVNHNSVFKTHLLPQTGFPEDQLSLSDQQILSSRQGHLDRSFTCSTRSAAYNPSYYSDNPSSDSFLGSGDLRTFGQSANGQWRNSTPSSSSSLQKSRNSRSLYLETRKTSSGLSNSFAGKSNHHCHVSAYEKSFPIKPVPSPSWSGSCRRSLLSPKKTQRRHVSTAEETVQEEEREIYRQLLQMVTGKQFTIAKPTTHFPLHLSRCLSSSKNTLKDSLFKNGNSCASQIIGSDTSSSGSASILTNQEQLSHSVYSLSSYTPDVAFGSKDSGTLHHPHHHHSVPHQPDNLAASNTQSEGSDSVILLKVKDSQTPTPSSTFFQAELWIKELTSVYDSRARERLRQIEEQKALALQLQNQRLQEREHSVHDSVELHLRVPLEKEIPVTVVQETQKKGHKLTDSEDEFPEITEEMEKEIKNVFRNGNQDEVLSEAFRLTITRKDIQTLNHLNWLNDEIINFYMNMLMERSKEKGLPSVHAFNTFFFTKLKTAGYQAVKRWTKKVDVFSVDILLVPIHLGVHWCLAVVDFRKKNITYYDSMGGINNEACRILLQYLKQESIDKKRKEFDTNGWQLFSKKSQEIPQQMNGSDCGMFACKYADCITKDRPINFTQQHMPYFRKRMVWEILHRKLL
Experimental: The cDNA encoding SENP1 was obtained by PCR amplification from placenta mRNA. SENP1 cDNA was subcloned by PCR into a bacterial expression vector (pMAL-C2X; New England BioLabs, Inc). The sequence was ascertained by sequencing of the entire open reading frame. pMAL-C2-SENP1 was transformed into BL21 cells and grown in LB-ampicillin medium supplemented with glucose (2 g.l^−1). Fusion protein expression was induced by IPTG (0.5 mM). Bacterial cell lysates were harvested and lyzed in lysis buffer (Tris HCl 20 mM pH 7.4; 1 mM EDTA; 200 mM NaCl; 0.5% Triton X-100; 10 % glycerol; Protease Inhibitor Cocktail) followed by sonication. Proteins were affinity purified on amylose affinity resin (New England BioLabs, Inc). Bound materials were extensively washed in wash buffer (20 mM Tris HCl pH 7.4; 200 mM NaCl; 1 mM EDTA; 0.5% Triton X-100; 10% glycerol) and eluted from the resin in 10 mM maltose-containing wash buffer. Proteins were dialyzed in dialysis buffer (Tris HCl pH 7.6 20 mM; NaCl 200 mM; DTT 1 mM; EDTA 1 mM; 10% Glycerol). Proteins purifications were analyzed on 4-12% NuPAGE (Invitrogen).
MBP-SENP1 was diluted in SENP1 buffer (50 mM Tris HCl; 0.5 mM EDTA; 5 mM DTT; 0.01 % Triton X-100; Bovine Serum Albumin 0.05 mg.ml^−1 pH 7.6). Compounds stocks (100 mM) were stored at −20° C. in DMSO. Compounds were tested at the following final concentrations: 100 μM; 33.3 μM; 11.1 μM; 3.7 μM; 1.23 μM; 412 nM; 137 nM; 45.7 nM; 15.2 nM; 5 nM.
Reactions were performed as duplicates in Black LJL 96 well plates (HE microplates; Molecular Devices; 20 μl final reaction volume). The substrate concentration for SENP1 was 200 nM SUMO-AMC (Chem. Biol., 2003, 10, p. 837-846) (Boston Biochem). The concentration of the enzyme (SENP1) in specificity assays was 1.8 nM. The concentrations were determined in order to perform specificity assays under initial velocities at fixed substrate concentration. Compounds were pre-incubated with enzymes for 30 minutes at 25° C. Reactions were initiated by addition of substrate to the plates containing the enzymes (+/− compounds) diluted in assay buffer. Reactions were incubated for 60 minutes at 37° C. Reactions were stopped by adding acetic acid (100 mM final). Readings were performed on a Pherastar Fluorescent Reader (BMG). λ Emission 380 nm; λ Excitation=460 nm. Data (mean values +/− standard deviation) were analyzed as % of control (no compound) and plotted as percentage versus the Log of the compound concentration using GraphPad (Prism). Data were fitted to a sigmoidal model (variable slope).

[2] = test system: HCT116 colon cancer cells; assay: HCT116 cell viability and proliferation assay (MTS); type: cell-based; details: Homo sapiens, HCT-116, 72 hours incubation, mean of three independent experiments, read-out: HCT116 GI50 D3
Experimental: HCT116 colon cancer cells were obtained from ATCC (American Type Culture Collection), and maintained in Mc Coy's 5A medium containing 10% FBS, 3 mM glutamine and 1% penicillin/streptomycin. Cells were incubated at 37° C. in a humidified atmosphere containing 5% CO2.
(§1) Cell viability was assayed using the MTS technique in 96-well culture plates (CellTiter 96® Aqueous Non-Radioactive Cell Proliferation Assay, Promega) according to the manufacturer's instructions. MTS (3-(4,5-dimethyl-thiazol-2-yl)-5-(3-carboxymethoxyphenyl)-2-(4-sulfophenyl)-2H-tetra-zolium) is a MTT-derived tetrazolium that is reduced in metabolically active cells into a soluble, cell-permeant formazan. The amount of formazan, detected by its absorbance at 492 nm is proportional to the number of living, metabolically active cells.
(§2) 10^3 HCT116 cells were seeded per well. 24 hours later, the medium was changed and the cells treated in triplicate with the following concentrations of each compound: 10 μM-3.33 μM-1.11 μM-370 nM-123 nM-41 nM-14 nM and 5 nM. The compounds were diluted in 100% DMSO, whose final concentration on cells was kept at 0.5%.
(§3) Cells were incubated with the compounds for 72 hours, and their viability then assayed by the addition of MTS for 2 hours. Absorbance at 492 nm was measured directly from the 96-well culture plates. G150 (Growth Inhibition 50) concentrations for each compound were calculated using a sigmoidal variable slope fit (Prism 4.0, Graphpad Softwares). Values represent mean of three independent experiments.

[3] = test system: PC-3 prostate cancer cells; assay: PC3 cell viability and proliferation assay (MTS); type: cell-based; details: Homo sapiens, PC-3, 72 hours incubation, mean of three independent experiments, read-out: PC3 GI50 D3
Experimental: PC-3 prostate cancer cells were obtained from ATCC, and maintained in F-12K medium containing 7% FBS and 1% penicillin/streptomycin. Cells were incubated at 37° C. in a humidified atmosphere containing 5% CO2.
as §1, with “(3-(4,5-dimethyl-thiazol-2-yl)-5-(3-carboxymethoxyphenyl)-2-(4-sulfophenyl)-2H-tetrazolium)” for “(3-(4,5-dimethyl-thiazol-2-yl)-5-(3-carboxymethoxyphenyl)-2-(4-sulfophenyl)-2H-tetra-zolium)”
as §2, with “2×10^3 PC3” for “10^3 HCT116”
as §3, with “GI50” for “G150”

[4] = target: T2, Caspase 3 (Homo sapiens, UniProt P42574); assay: Caspase 3 activity assay; type: biochemical; details: 500 nM Ac-DEVD-AMC, 3.2 nM enzyme; pre-incubated 30 minutes at 25° C., 60 minutes at 37° C.; sigmoidal fit
T2 sequence (P42574 29-175 limits assumed): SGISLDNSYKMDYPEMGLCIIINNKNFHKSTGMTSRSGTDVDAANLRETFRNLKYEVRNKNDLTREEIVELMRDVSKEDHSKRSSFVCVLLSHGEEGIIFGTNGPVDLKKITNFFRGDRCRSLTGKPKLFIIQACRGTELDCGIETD
T2 sequence (P42574 176-277 limits assumed): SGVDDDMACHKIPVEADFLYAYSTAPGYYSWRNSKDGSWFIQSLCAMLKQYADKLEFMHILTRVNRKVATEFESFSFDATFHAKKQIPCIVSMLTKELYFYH
Experimental: Caspase 3 was diluted in Caspase 3 buffer (100 mM Hepes pH 7.5; 10% sucrose; 0.1% CHAPS). Compounds stocks (100 mM) were stored at −20° C. in DMSO. Compounds were tested at the following final concentrations: 100 μM; 33.3 μM; 11.1 μM; 3.7 μM; 1.23 μM; 412 nM; 137 nM; 45.7 nM; 15.2 nM; 5 nM. Reactions were performed as duplicates in Black LJL 96 well plates (HE microplates; Molecular Devices; 20 μl final reaction volume). The substrate concentration for caspase 3 specificity assay was 500 nM (Ac-DEVD-AMC; Promega). The concentration of the enzyme (Caspase 3) in specificity assays was 3.2 nM. The concentrations were determined in order to perform specificity assays under initial velocities at fixed substrate concentration. Compounds were pre-incubated with enzymes for 30 minutes at 25° C. Reactions were initiated by addition of substrate to the plates containing the enzymes (+/− compounds) diluted in assay buffer. Reactions were incubated for 60 minutes at 37° C. Reactions were stopped by adding acetic acid (100 mM final). Readings were performed on a Pherastar Fluorescent Reader (BMG). δ Emission 380 nm; δ Excitation=460 nm. Data (mean values +/− standard deviation) were analyzed as % of control (no compound) and plotted as percentage versus the Log of the compound concentration using GraphPad (Prism). Data were fitted to a sigmoidal model (variable slope).

Row | IC50 [1] | GI50 [2] | GI50 [3] | IC50 [4] | Structure (SMILES)
1 | > 100000 nM | 1300 nM | 7090 nM | – | Cc1nnc2nc3c(nn12)C(=O)c1ccccc1-3 [Example 1b/A, 1-Methyl-2,3,4,10,10a-pentaaza-cyclopenta[b]fluoren-9-one]
2 | > 100000 nM | 2050 nM | 4000 nM | – | O=C1c2ccccc2-c2nc3nnc(CO)n3nc21 [Example 1h/A, 1-Hydroxymethyl-2,3,4,10,10a-pentaaza-cyclopenta[b]fluoren-9-one]
3 | – | 981 nM | 3170 nM | 212 nM | Nc1nnc2nc3c(nn12)-c1ccccc1C3=O [Example 1c/B, 3-Amino-1,2,3a,4,10-pentaaza-cyclopenta[b]fluoren-9-one]
